Measured values reported in ChEMBL document CHEMBL3217720, “Identification of an inhibitor of the ubiquitinproteasome system that induces accumulation of polyubiquitinated proteins in the absence of blocking of proteasome function” (Medchemcomm, 2014).
Activity calls are given as the source filed them. The calls are words filed in the database; no cut-off is given here.

Legend:
[1] = test system: MelJuSo UbG76V-YFP; experiment: Inhibition of Ubiquitin-proteasome system in human MelJuSo UbG76V-YFP cells assessed as Hmox-1 accumulation 5 to 10 uM after 18 hrs by immunoblot method; type: cell-based
[2] = test system: MelJuSo UbG76V-YFP; experiment: Inhibition of Ubiquitin-proteasome system in human MelJuSo UbG76V-YFP cells assessed as HSP70B' accumulation 5 to 10 uM after 18 hrs by immunoblot method; type: cell-based
[3] = test system: MelJuSo UbG76V-YFP; experiment: Inhibition of Ubiquitin-proteasome system in human MelJuSo UbG76V-YFP cells assessed as accumulation of UbG76V-YFP protein at 5 to 10 uM after 18 hrs by immunoblot method; type: cell-based
[4] = test system: MelJuSo UbG76V-YFP; experiment: Inhibition of Ubiquitin-proteasome system in human MelJuSo UbG76V-YFP cells assessed as accumulation of K48-linked poly-ubiquitinated proteins at 5 to 10 uM after 18 hrs by immunoblot method; type: cell-based
[5] = (§1) Cytotoxicity against human CLL cells after 3 days by FMCA method; type: functional, cell-based; conditions: 72 h
[6] = (§2) Cytotoxicity against human Colon cancer cells after 3 days by FMCA method; type: functional, cell-based; conditions: Cancer cell lines, 72 h
[7] = (§3) Cytotoxicity against human Pseudomyxoma peritonei cells after 3 days by FMCA method; type: functional, cell-based; conditions: 72 h
[8] = Cytotoxicity against human MelJuSo cells after 3 days by FMCA method; type: functional, cell-based; conditions: MEL-JUSO, 72 h
[9] = test system: HCT-116; experiment: Cytotoxicity against human HCT116 cells after 3 days by FMCA method; type: functional, cell-based; conditions: HCT-116, 72 h
[10] = test system: HL-60; experiment: Cytotoxicity against human HL60 cells after 3 days by FMCA method; type: functional, cell-based; conditions: HL-60, 72 h
[11] = test system: Kasumi 1; experiment: Cytotoxicity against human Kasumi-1 cells after 3 days by FMCA method; type: functional, cell-based; conditions: Kasumi 1, 72 h
[12] = test system: CCRF-CEM; experiment: Cytotoxicity against human CCRF-CEM cells after 3 days by FMCA method; type: functional, cell-based; conditions: 72 h
[13] = Cytotoxicity against human NCI-H929 cells after 3 days by FMCA method; type: functional, cell-based; conditions: NCI-H929, 72 h
[14] = Cytotoxicity against human 8226/DOX40 cells after 3 days by FMCA method; type: functional, cell-based; conditions: 72 h
[15] = Cytotoxicity against human RPMI18226 cells after 3 days by FMCA method; type: functional, cell-based; conditions: RPMI18226, 72 h
[16] = test system: MelJuSo UbG76V-YFP; experiment: Inhibition of Ubiquitin-proteasome system in human MelJuSo UbG76V-YFP cells assessed as HSP70B' accumulation 50 uM after 18 hrs by immunoblot method; type: cell-based
[17] = test system: MelJuSo UbG76V-YFP; experiment: Inhibition of Ubiquitin-proteasome system in human MelJuSo UbG76V-YFP cells assessed as HSP70B' accumulation 5 to 20 uM after 18 hrs by immunoblot method; type: cell-based
[18] = test system: MelJuSo UbG76V-YFP; experiment: Inhibition of Ubiquitin-proteasome system in human MelJuSo UbG76V-YFP cells assessed as p21 accumulation 20 to 50 uM after 18 hrs by immunoblot method; type: cell-based
[19] = test system: MelJuSo UbG76V-YFP; experiment: Inhibition of Ubiquitin-proteasome system in human MelJuSo UbG76V-YFP cells assessed as accumulation of UbG76V-YFP protein at 50 uM after 18 hrs by immunoblot method; type: cell-based
[20] = test system: MelJuSo UbG76V-YFP; experiment: Inhibition of Ubiquitin-proteasome system in human MelJuSo UbG76V-YFP cells assessed as accumulation of K48-linked poly-ubiquitinated proteins at 5 to 100 uM after 18 hrs by immunoblot method; type: cell-based
[21] = target: T1, 26S proteasome (Homo sapiens) (UniProt Q99460+P49721+P20618+P28074+P28062+P28065+P28072+O00487+P25786+P25787+P25788+P25789+P28066+P60900+O14818+Q8TAA3+P40306+A5LHX3+P49720+P28070+Q99436+Q16186+P35998+P62191+P43686+P62333+P17980+P62195+Q13200+O43242+O00232+O00231+Q15008+P51665+Q9UNM6+P55036+P48556+P60896); experiment: Inhibition of erythrocyte 20S proteasome (unknown origin) assessed as inhibition of chymotrypsin activity at 50 uM after 15 mins using Suc-LLVY-AMC substrate by fluorescence assay; type: protein-complex assay
[22] = target: T1, 26S proteasome (Homo sapiens); experiment: Inhibition of erythrocyte 20S proteasome (unknown origin) assessed as inhibition of chymotrypsin activity at 10 uM after 15 mins using Suc-LLVY-AMC substrate by fluorescence assay; type: protein-complex assay
[23] = test system: MelJuSo UbG76V-YFP; experiment: Inhibition of Ubiquitin-proteasome system in human MelJuSo UbG76V-YFP cells assessed as accumulation of K48-linked poly-ubiquitinated proteins at 10 uM after 18 hrs by immunoblot method; type: cell-based
[24] = test system: MelJuSo UbG76V-YFP; experiment: Inhibition of Ubiquitin-proteasome system in human MelJuSo UbG76V-YFP cells assessed as accumulation of UbG76V-YFP protein at 5 uM after 18 hrs by immunoblot method; type: cell-based
[25] = test system: MelJuSo UbG76V-YFP; experiment: Inhibition of Ubiquitin-proteasome system in human MelJuSo UbG76V-YFP cells assessed as accumulation of K48-linked poly-ubiquitinated proteins at 5 uM by immunoblot method; type: cell-based
[26] = test system: MelJuSo UbG76V-YFP; experiment: Inhibition of Ubiquitin-proteasome system in human MelJuSo UbG76V-YFP cells assessed as accumulation of UbG76V-YFP protein at 5 uM; type: cell-based
[27] = test system: HEK293; experiment: Inhibition of Ubiquitin-proteasome system in human HEK293 cells assessed as accumulation of ornithine decarboxylase-green fluorescent fusion protein at 5 uM after 16 hrs; type: cell-based
[28] = test system: CLL; experiment: as §1; type: functional, cell-based
[29] = test system: Cancer cell lines; experiment: as §2; type: functional, cell-based
[30] = species on record: Homo sapiens; experiment: as §3; type: functional, cell-based
[31] = target: T1, 26S proteasome (Homo sapiens); conditions: MelJuSo UbG76V-YFP, 0.1 uM
Description: Inhibition of 20S proteasome in human MelJuSo UbG76V-YFP cells assessed as accumulation of K48-linked poly-ubiquitinated proteins at 0.1 uM after 6 hrs by immunoblot method

[32] = target: T1, 26S proteasome (Homo sapiens); conditions: MelJuSo UbG76V-YFP, 0.1 uM; remark: listed apart in the source
Description: Inhibition of 20S proteasome in human MelJuSo UbG76V-YFP cells assessed as accumulation of UbG76V-YFP protein at 0.1 uM after 6 hrs by immunoblot method

CC1(C)C(N(O)C(=O)Nc2ccc(Cl)cc2)N(c2ccc(Cl)cc2)C(=O)N1CC(=O)N/N=C/C=C/c1ccc([N+](=O)[O-])o1 (stereo unspecified)
inhibition [1]: Active
inhibition [2]: inactive
inhibition [3]: inactive
inhibition [4]: Active

COc1cc(/C=C/C(=O)N2CCC=CC2=O)cc(OC)c1OC
inhibition [2]: inactive

O=P(Oc1ccccc1)(Oc1ccccc1)OC1C=CS(=O)(=O)C1 (stereo unspecified)
IC50 [5]: 690 nM
IC50 [6]: 1700 nM
IC50 [7]: 510 nM
IC50 [8]: 5400 nM
IC50 [9]: 5800 nM
IC50 [10]: 2500 nM
IC50 [11]: 1900 nM
IC50 [12]: 1800 nM
IC50 [13]: 610 nM
IC50 [14]: 2800 nM
IC50 [15]: 1300 nM
inhibition [1]: Active
inhibition [2]: inactive
inhibition [3]: inactive
inhibition [4]: Active
inhibition [16]: Active
inhibition [17]: inactive
inhibition [18]: Active
inhibition [19]: Active
inhibition [20]: Active
inhibition [21]: Active
inhibition [22]: inactive
inhibition [23]: Active
inhibition [24]: inactive
inhibition [25]: Active
inhibition [26]: Active
inhibition [27]: Active

O=C(CCl)Nc1cccc(NC2=NS(=O)(=O)c3ccccc32)c1
inhibition [1]: Active
inhibition [2]: inactive
inhibition [3]: inactive
inhibition [4]: Active

CC(C)C[C@H](NC(=O)[C@H](Cc1ccccc1)NC(=O)c1cnccn1)B(O)O
inhibition [28]: Active
inhibition [29]: Active
inhibition [30]: Active
inhibition [31]: Active
inhibition [32]: Active
